Like-named read-outs stand apart in the source and are kept apart here. Square brackets hold non-standard residues; d marks the D form. Peptide text beside a SMILES is read from it. Abu = CC[C@H](N)C(=O)O
What was measured:
[1] = the molecule shown is the open-chain precursor
[2] = the molecule shown is the open-chain precursor; remark: listed apart in the source
[3] = the molecule shown is the open-chain precursor, 3 steps
[4] = target: human C5aR1 (Homo sapiens, UniProt P21730); assay: cell-based; conditions: SEM
Chain of human C5aR1 (P21730 whole entry): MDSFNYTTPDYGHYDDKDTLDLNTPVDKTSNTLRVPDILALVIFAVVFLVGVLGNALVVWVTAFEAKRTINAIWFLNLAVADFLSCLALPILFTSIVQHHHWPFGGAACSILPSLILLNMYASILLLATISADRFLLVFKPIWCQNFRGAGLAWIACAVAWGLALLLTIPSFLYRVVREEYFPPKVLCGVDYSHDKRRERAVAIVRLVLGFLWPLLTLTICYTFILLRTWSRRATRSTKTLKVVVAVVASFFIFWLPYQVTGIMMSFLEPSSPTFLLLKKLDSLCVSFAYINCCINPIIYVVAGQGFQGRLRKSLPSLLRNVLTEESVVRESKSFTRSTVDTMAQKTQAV

Row | Molecule | ring closure, conversion by HPLC (% (HPLC peak area)) [1] | ring closure, conversion by HPLC (% (HPLC peak area)) [2] | other results
1 | H-VCGATCVGGTCNTPGCTCSWPVCT-OH (6 free Cys) | 3.8 | 4.6 | 
2 | CC(C)CC(NCCCC[C@@H]1NC(=O)[C@@H](Cc2c[nH]c3ccccc23)NC(=O)[C@H](Cc2ccccc2)NC(=O)[C@@H](NC(=O)[C@H](N)Cc2ccccc2)CSSC[C@@H](C(=O)N[C@H](C(=O)N[C@H](C(=O)N[C@H]2CSSC[C@@H]3NC(=O)CNC(=O)[C@@H]4CCCN4C(=O)[C@H]([C@@H](C)O)NC(=O)[C@H](CC(N)=O)NC(=O)[C@@H]4CSSC[C@@H](C(=O)N[C@H](C(=O)O)[C@@H](C)O)NC(=O)[C@H](C(C)C)NC(=O)[C@@H]5CCCN5C(=O)[C@H](Cc5c[nH]c6ccccc56)NC(=O)[C@H](CO)NC(=O)[C@H](CSSC[C@H](NC(=O)[C@H]([C@@H](C)O)NC(=O)[C@H](CCC(N)=O)NC(=O)CNC2=O)C(=O)N[C@@H](C(C)C)C(=O)NCC(=O)NCC(=O)N[C@@H]([C@@H](C)O)C(=O)N4)NC(=O)[C@H]([C@@H](C)O)NC3=O)C(C)C)[C@@H](C)O)NC(=O)[C@H]([C@@H](C)O)NC1=O)=C1C(=O)CC(C)(C)CC1=O |  |  | ring closure, yield over several steps ([3]; 96-membered ring): 16.1%
3 | CC[C@H](NC(=O)[C@H](C)NC(=O)[C@H](CC(C)C)NC(=O)[C@@H]1CCCN1C(=O)[C@H](CCCCNC(CC(C)C)=C1C(=O)CC(C)(C)CC1=O)NC(=O)[C@@H](N)Cc1ccccc1)C(=O)N[C@H](C)C(=O)N[C@@H](CCCNC(=N)N)C(=O)N[C@H](C(=O)N[C@H]1CSSC[C@@H]2NC(=O)CNC(=O)[C@@H]3CCCN3C(=O)[C@H]([C@@H](C)O)NC(=O)[C@H](CC(N)=O)NC(=O)[C@@H]3CSSC[C@@H](C(=O)N[C@H](C(=O)O)[C@@H](C)O)NC(=O)[C@H](C(C)C)NC(=O)[C@@H]4CCCN4C(=O)[C@H](Cc4c[nH]c5ccccc45)NC(=O)[C@H](CO)NC(=O)[C@H](CSSC[C@H](NC(=O)[C@H]([C@@H](C)O)NC(=O)[C@H](CCC(N)=O)NC(=O)CNC1=O)C(=O)N[C@@H](C(C)C)C(=O)NCC(=O)NCC(=O)N[C@@H]([C@@H](C)O)C(=O)N3)NC(=O)[C@H]([C@@H](C)O)NC2=O)C(C)C |  |  | ring closure, yield over several steps ([3]; 96-membered ring): 1.1%
4 | CC(C)CC(NCCCC[C@H](NC(=O)[C@@H](N)Cc1ccccc1)C(=O)N1CCC[C@H]1C(=O)N[C@@H](CC(C)C)C(=O)N[C@@H](C)C(=O)N[C@@H](C)C(=O)N[C@H](C)C(=O)N[C@@H](CCCNC(=N)N)C(=O)N[C@H](C(=O)N[C@H]1CSSC[C@@H]2NC(=O)CNC(=O)[C@@H]3CCCN3C(=O)[C@H]([C@@H](C)O)NC(=O)[C@H](CC(N)=O)NC(=O)[C@@H]3CSSC[C@@H](C(=O)N[C@H](C(=O)O)[C@@H](C)O)NC(=O)[C@H](C(C)C)NC(=O)[C@@H]4CCCN4C(=O)[C@H](Cc4c[nH]c5ccccc45)NC(=O)[C@H](CO)NC(=O)[C@H](CSSC[C@H](NC(=O)[C@H]([C@@H](C)O)NC(=O)[C@H](CCC(N)=O)NC(=O)CNC1=O)C(=O)N[C@@H](C(C)C)C(=O)NCC(=O)NCC(=O)N[C@@H]([C@@H](C)O)C(=O)N3)NC(=O)[C@H]([C@@H](C)O)NC2=O)C(C)C)=C1C(=O)CC(C)(C)CC1=O |  |  | ring closure, yield over several steps ([3]; 96-membered ring): 22%
5 | CC[C@H](C)[C@H](NC(=O)[C@H](CCCNC(=N)N)NC(=O)[C@H](CCCNC(=N)N)NC(=O)[C@H](CC(C)C)NC(=O)[C@H](Cc1ccccc1)NC(=O)CNC(=O)CNC(=O)[C@@H](N)Cc1ccc(O)cc1)C(=O)N[C@@H](CCCNC(=N)N)C(=O)N1CCC[C@H]1C(=O)N[C@@H](CCCCNC(CC(C)C)=C1C(=O)CC(C)(C)CC1=O)C(=O)N[C@@H](CC(C)C)C(=O)N[C@@H](CCCCNC(CC(C)C)=C1C(=O)CC(C)(C)CC1=O)C(=O)N[C@H](C(=O)N[C@H]1CSSC[C@@H]2NC(=O)CNC(=O)[C@@H]3CCCN3C(=O)[C@H]([C@@H](C)O)NC(=O)[C@H](CC(N)=O)NC(=O)[C@@H]3CSSC[C@@H](C(=O)N[C@H](C(=O)O)[C@@H](C)O)NC(=O)[C@H](C(C)C)NC(=O)[C@@H]4CCCN4C(=O)[C@H](Cc4c[nH]c5ccccc45)NC(=O)[C@H](CO)NC(=O)[C@H](CSSC[C@H](NC(=O)[C@H]([C@@H](C)O)NC(=O)[C@H](CCC(N)=O)NC(=O)CNC1=O)C(=O)N[C@@H](C(C)C)C(=O)NCC(=O)NCC(=O)N[C@@H]([C@@H](C)O)C(=O)N3)NC(=O)[C@H]([C@@H](C)O)NC2=O)C(C)C |  |  | ring closure, yield over several steps ([3]; 111-membered ring): 17.4%
6 | H-VCGETCVGGTCNTPGCTCSWPVCT-OH (6 free Cys) | 15.4 | 23.4 | 
7 | CC[C@H](C)[C@H](NC(=O)[C@H](CCCNC(=N)N)NC(=O)[C@H](CCCNC(=N)N)NC(=O)[C@H](CC(C)C)NC(=O)[C@H](Cc1ccccc1)NC(=O)CNC(=O)CNC(=O)[C@@H](N)Cc1ccc(O)cc1)C(=O)N[C@@H](CCCNC(=N)N)C(=O)N1CCC[C@H]1C(=O)N[C@@H](CCCCNC(CC(C)C)=C1C(=O)CC(C)(C)CC1=O)C(=O)N[C@@H](CC(C)C)C(=O)N[C@@H](CCCCNC(CC(C)C)=C1C(=O)CC(C)(C)CC1=O)C(=O)NCC(=O)N[C@H]1CSSC[C@@H]2NC(=O)[C@H](C(C)C)NC(=O)[C@@H]3CCCN3C(=O)[C@H](CC(C)C)NC(=O)CNC(=O)[C@H](CC(N)=O)NC(=O)[C@H](CCCNC(=N)N)NC(=O)[C@H]([C@@H](C)O)NC(=O)[C@@H]3CSSC[C@@H](C(=O)N[C@@H](CC(N)=O)C(=O)O)NC(=O)[C@H]([C@@H](C)O)NC(=O)CNC(=O)CNC(=O)[C@H](C(C)C)NC(=O)[C@H](CSSC[C@H](NC(=O)[C@H]([C@@H](C)O)NC1=O)C(=O)N[C@@H](CO)C(=O)N[C@@H](Cc1c[nH]c4ccccc14)C(=O)N1CCC[C@H]1C(=O)N[C@@H](C(C)C)C(=O)N3)NC(=O)[C@H]([C@@H](C)O)NC(=O)[C@H](CCC(N)=O)NC(=O)CNC2=O |  |  | ring closure, yield over several steps ([3]; 120-membered ring): 11.2%
8 | H-VCTRNGLPVCGQTCVGGTCNTPGCTCS-OH (6 free Cys) | 27 | 30.5 | 
9 | H-GCYFQNCPRGVCGQTCVGGTCNTPGCTCSWPVCT-OH (epitope Cys2-Cys7 disulfide; scaffold I-IV, II-V, III-VI) |  |  | ring closure, yield over several steps ([3]; 102-membered ring): 1.7%
10 | H-RNGLPVCGETCVGGTCNTPGCTCSWPVCT-OH (disulfides I-IV, II-V, III-VI) |  |  | ring closure, yield over several steps ([3]; 87-membered ring): 10.6%
11 | H-TCNTPGCTCSWPVCTRNGLPVCGQTCV-OH (6 free Cys) | 3.7 | 8.1 | 
12 | H-RNGLPVCGQTCVGGTCNTPGCTCSWPVCT-OH (disulfides I-IV, II-V, III-VI) |  |  | ring closure, yield over several steps ([3]; 87-membered ring): 24.8%
13 | H-GCTCSWPVCTRNGLPVCGQTCVGGTCN-OH (6 free Cys) | 2.6 | 9.5 | 
14 | CC[C@H](C)[C@@H]1NC(=O)[C@@H]2CCCN2C(=O)[C@@H]2CCCN2C(=O)[C@H]([C@@H](C)CC)NC(=O)[C@H](CO)NC(=O)[C@H](CCCCNC(CC(C)C)=C2C(=O)CC(C)(C)CC2=O)NC(=O)[C@H]([C@@H](C)O)NC(=O)[C@@H](NC(=O)CN)CSSC[C@@H](C(=O)NCC(=O)N[C@H](C(=O)N[C@H]2CSSC[C@@H]3NC(=O)CNC(=O)[C@@H]4CCCN4C(=O)[C@H]([C@@H](C)O)NC(=O)[C@H](CC(N)=O)NC(=O)[C@@H]4CSSC[C@@H](C(=O)N[C@H](C(=O)O)[C@@H](C)O)NC(=O)[C@H](C(C)C)NC(=O)[C@@H]5CCCN5C(=O)[C@H](Cc5c[nH]c6ccccc56)NC(=O)[C@H](CO)NC(=O)[C@H](CSSC[C@H](NC(=O)[C@H]([C@@H](C)O)NC(=O)[C@H](CCC(N)=O)NC(=O)CNC2=O)C(=O)N[C@@H](C(C)C)C(=O)NCC(=O)NCC(=O)N[C@@H]([C@@H](C)O)C(=O)N4)NC(=O)[C@H]([C@@H](C)O)NC3=O)C(C)C)NC1=O |  |  | ring closure, yield over several steps ([3]; 105-membered ring): 18.7%
15 | CC[C@H](C)[C@H](NC(=O)[C@H](CCCNC(=N)N)NC(=O)[C@H](CCCNC(=N)N)NC(=O)[C@H](CC(C)C)NC(=O)[C@H](Cc1ccccc1)NC(=O)CNC(=O)CNC(=O)[C@@H](N)Cc1ccc(O)cc1)C(=O)N[C@@H](CCCNC(=N)N)C(=O)N1CCC[C@H]1C(=O)N[C@@H](CCCCNC(CC(C)C)=C1C(=O)CC(C)(C)CC1=O)C(=O)N[C@@H](CC(C)C)C(=O)N[C@@H](CCCCNC(CC(C)C)=C1C(=O)CC(C)(C)CC1=O)C(=O)N[C@H](C(=O)N[C@H]1CSSC[C@@H]2NC(=O)[C@H]([C@@H](C)O)NC(=O)CNC(=O)CNC(=O)[C@H](C(C)C)NC(=O)[C@@H]3CSSC[C@@H](C(=O)N[C@@H](CO)C(=O)O)NC(=O)[C@H]([C@@H](C)O)NC(=O)[C@H](CSSC[C@H](NC(=O)[C@H](C(C)C)NC(=O)[C@@H]4CCCN4C(=O)[C@H](CC(C)C)NC(=O)CNC(=O)[C@H](CC(N)=O)NC(=O)[C@H](CCCNC(=N)N)NC(=O)[C@H]([C@@H](C)O)NC1=O)C(=O)NCC(=O)N[C@@H](CCC(N)=O)C(=O)N[C@@H]([C@@H](C)O)C(=O)N3)NC(=O)CNC(=O)[C@@H]1CCCN1C(=O)[C@H]([C@@H](C)O)NC(=O)[C@H](CC(N)=O)NC2=O)C(C)C |  |  | ring closure, yield over several steps ([3]; 120-membered ring): 7.1%
16 | H-VCGQTCVGGTCNTPGCTCSWPVCT-OH (6 free Cys) | 9.4 | 16.1 | 
17 | cyclo-(CGQTCVGGTCNTPGCTCSWPVCTRNGLPV) (6 free Cys) | 23.5 | 26.1 | 
18 | H-GCYIQNCPLGVCGQTCVGGTCNTPGCTCSWPVCT-OH (epitope Cys2-Cys7 disulfide; scaffold I-IV, II-V, III-VI) |  |  | ring closure, yield over several steps ([3]; 102-membered ring): 10.9%
19 | CC[C@H](NC(=O)[C@H](C)NC(=O)[C@H](CC(C)C)NC(=O)[C@@H]1CCCN1C(=O)[C@H](CCCCN)NC(=O)[C@@H](N)Cc1ccccc1)C(=O)N[C@H](C)C(=O)N[C@@H](CCCNC(=N)N)C(=O)O [BM221] (H-FKPLA[Abu][dA]R-OH) |  |  | EC50 [4]: 2.8 ± 0.9 nM

From paper PMC11151825 (RSC Chemical Biology, 2024)
